# Values of other authors as cited in US5346895A, “Chromans and thiochromans with heteroarylethynyl substituents at the 7-position having retinoid-like biological activity” (Allergan, Inc., priority 1993, dated 1994).
# Test system: ornithine decarboxylase (ODC), TPA induced ODC activity
# Conditions: result in words, retinoic acid, background knowledge
structure (smiles),measurement,value
CC1=C(/C=C/C(C)=C/C=C/C(C)=C/C(=O)O)C(C)(C)CCC1 [Retinoic acid],inhibition of induction of ODC activity by TPA,inhibits this induction of ODC activity by TPA
